“Also recorded” adds a separate entry of the source.
Columns and labels:
E. coli topoisomerase IV = biological target: T1, E. coli topoisomerase IV (Escherichia coli, UniProt P0AFI2+P20083); test: Topoisomerase IV supercoiling relaxation assay (pQE80L); format: biochemical; details: at 12.5 µM (compounds)
T1 construct: purchased Inspiralis
Procedure: 2.1. Biological and biochemical methods […]
E. coli DNA gyrase supercoiling assay (Inspiralis) was performed according to the manufacturer’s instructions, ensuring a constant concentration of 1% (v/v) DMSO. Samples were separated on a 1% (w/v) agarose gel prepared with Tris/Borate/EDTA (TBE) buffer (1 M Tris-borate, 20 mM EDTA, pH 8.0). Electrophoresis was performed at 100 V until the bromophenol blue dye had run >6 cm to ensure resolution of relaxed and supercoiled DNA.
The gel was stained with SYBR Safe DNA gel stain (Invitrogen, 1:10,000 dilution in TBE) for 30 min, and visualized on a Syngene Gel Doc system. Band intensity was quantified using ImageJ software and the fraction of supercoiled plasmid was determined as the ratio of the density of the supercoiled band to the total density. Values were background corrected against the no-gyrase control and normalized to DMSO control for dose-response analysis.
E. coli topoisomerase IV supercoiling relaxation assay (Inspiralis) was performed according to the manufacturer’s instructions, ensuring a constant concentration of 1% (v/v) DMSO.
Supercoiled pQE80L was prepared via plasmid purification and used as the substrate for the reaction. Reactions were analyzed as described for DNA gyrase assays. […]

[1] = system: AddAB (StrepII-AddA and His6-AddB); test: Recombinant AddAB pulldown with compound-functionalized Sepharose; format: binding; details: E. coli lysate co-expressing StrepII-AddA and His6-AddB, Western blot
Description: A SOS reporter system was generated by transformation of JE2 cells with a plasmid containing GFP under control of the recA promoter. Activation of the SOS response in these cells results in expression of GFP which can be monitored by fluorescence intensity. […] This decrease is indicative of inhibition of the SOS response during cell death, and consistent with the proposed inhibition of AddAB-mediated DNA repair pathways. Finally, to provide additional evidence that inhibition of the bacterial DNA repair pathway by IMP-1700 (10) occurred through inhibition of AddAB, a target pulldown was conducted. IMP-1700 (10) was coupled with N-Boc-ethylenediamine to afford amide 19, followed by removal of the Boc group in 4 M HCl/dioxane and purification using strong cation exchange resin. The resulting free amine 20 was coupled to N-hydroxysuccinimide (NHS)-activated Sepharose resin at 4 °C overnight (Figure 2C), and the remaining NHS sites quenched in Tris buffer. SoluBL21 competent E. coli were transformed with pET28b^+ containing StrepII-tagged AddA and hexahistidine-tagged AddB, and expression induced overnight at 16 °C. Cells were lysed via sonication and the total lysate incubated with IMP-1700 (10)-functionalized or control Sepharose beads which had been treated with DMSO then Tris-quenched. Beads were washed three times with lysis buffer and bound protein eluted with SDS-PAGE sample buffer, followed by PAGE separation. […]
agar (LA) supplemented with kanamycin (50 μg/mL). Liquid cultures were grown at 37 °C with shaking at 180 r.p.m until an OD600 of 0.5 was reached, at which point cultures were cooled to 16 °C. Protein expression was induced by addition of isopropyl β-D-thiogalactoside (1 mM), followed by incubation for 20 h at 16 °C with shaking. Cells were collected by centrifugation (4,000 × g, 5 min) and stored at -20 °C.
Cells were re-suspended in lysis buffer (50 mM Tris-HCl, 150 mM NaCl, pH 7.5) and lysed on ice by sonication (2 min, 5 s on-off cycle, 40% amplitude) using a Vibra-cell sonicator (Sonics). […]

T1 sequence (P0AFI2 whole entry): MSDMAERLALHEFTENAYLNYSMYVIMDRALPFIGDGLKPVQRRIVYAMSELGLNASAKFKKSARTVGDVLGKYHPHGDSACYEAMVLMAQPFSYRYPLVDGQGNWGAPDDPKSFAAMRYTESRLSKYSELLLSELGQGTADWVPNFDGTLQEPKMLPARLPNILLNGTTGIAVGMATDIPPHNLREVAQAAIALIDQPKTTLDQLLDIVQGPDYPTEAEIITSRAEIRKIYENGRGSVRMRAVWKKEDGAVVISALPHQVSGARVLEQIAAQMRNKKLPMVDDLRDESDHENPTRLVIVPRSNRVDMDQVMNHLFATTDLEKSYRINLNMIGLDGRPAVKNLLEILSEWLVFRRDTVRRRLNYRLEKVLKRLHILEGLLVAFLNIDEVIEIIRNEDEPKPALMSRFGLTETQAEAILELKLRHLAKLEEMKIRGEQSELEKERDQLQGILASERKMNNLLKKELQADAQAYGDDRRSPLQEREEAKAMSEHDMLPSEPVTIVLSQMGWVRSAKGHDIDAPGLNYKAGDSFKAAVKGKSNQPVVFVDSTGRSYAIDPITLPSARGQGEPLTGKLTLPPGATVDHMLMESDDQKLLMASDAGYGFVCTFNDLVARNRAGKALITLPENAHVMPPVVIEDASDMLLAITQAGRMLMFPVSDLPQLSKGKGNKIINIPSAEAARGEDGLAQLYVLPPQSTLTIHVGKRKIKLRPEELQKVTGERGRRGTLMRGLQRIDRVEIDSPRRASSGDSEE
T1 sequence (P20083 whole entry): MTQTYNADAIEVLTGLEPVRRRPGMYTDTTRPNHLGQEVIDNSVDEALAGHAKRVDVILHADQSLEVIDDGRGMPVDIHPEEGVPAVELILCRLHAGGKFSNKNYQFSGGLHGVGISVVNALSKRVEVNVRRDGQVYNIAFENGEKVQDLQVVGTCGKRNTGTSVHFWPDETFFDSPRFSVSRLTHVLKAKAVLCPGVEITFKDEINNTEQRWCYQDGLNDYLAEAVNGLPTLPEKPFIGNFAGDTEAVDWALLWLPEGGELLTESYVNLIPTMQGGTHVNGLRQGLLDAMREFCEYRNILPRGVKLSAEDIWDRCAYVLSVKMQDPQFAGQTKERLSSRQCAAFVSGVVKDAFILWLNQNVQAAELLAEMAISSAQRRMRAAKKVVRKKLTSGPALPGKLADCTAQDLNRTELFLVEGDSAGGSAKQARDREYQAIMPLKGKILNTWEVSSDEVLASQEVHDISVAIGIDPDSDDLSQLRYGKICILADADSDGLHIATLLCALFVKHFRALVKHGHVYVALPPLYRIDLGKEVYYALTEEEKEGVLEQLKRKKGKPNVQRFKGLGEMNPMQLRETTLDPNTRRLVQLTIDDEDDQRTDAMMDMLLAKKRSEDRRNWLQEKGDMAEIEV

Q: How did the “Inhibition of topoisomerase IV” value (E. coli topoisomerase IV) turn out when `O=C(O)c1cn(C2CC2)c2cc(N3CCN(C(=S)Nc4ccc(C(F)(F)F)cc4)CC3)c(F)cc2c1=O` [Compound 10] was run?
A: not inhibited and not

Q: And the “Pulldown of AddA and AddB by compound-functionalized Sepharose” value [1]?
A: allows co-isolation of the complex

Q: And the “Pulldown of AddA and AddB by compound-functionalized Sepharose” value ([1]; listed as IMP-1700)?
A: both AddA and AddB subunits were pulled down; also recorded: successfully pulled down

Source: PMC6892255, “Identification of a potent small-molecule inhibitor of bacterial DNA repair that potentiates quinolone antibiotic activity in methicillin-resistant Staphylococcus aureus^” (Bioorganic & Medicinal Chemistry, 2019)
